Reference: patent US6756362B2, “Methods and compositions based on inhibition of cell invasion and fibrosis by anionic polymers” (priority 1991, dated 2004)

System: adult rat sciatic nerve fibroblasts (RSF)
Assay: Stripe assay, RSF
Format: cell-based
Design: key: Bands that were completely inhibitory to cell adhesion, migration and/or invasion were evaluated as (−); those allowing limited cell adhesion, migration and/or invasion (+/−); those permissive to cell adhesion, migration and/or invasion as (+)
Conditions: for DS-PG Effect on Adhesion, Migration and Invasion: 2 days following plating
Experimental: Primary Cell Cultures. Primary cultures of rat meningeal fibroblasts (RMF) were obtained from P-3 rat pups. The tissue was removed from the animals and transferred to Leibovitz's L-15 with L-glutamine medium. The tissue was then cut into small pieces with a scalpel blade, enzymatically dissociated with 0.25% trypsin in Ca^2+/Mg^2+ free Hank's balanced salt solution (CMF-HBSS, Gibco Laboratories) for 20 minutes at 37° C., and mechanically triturated. The cells were rinsed with DMEM plus 10% FCS, concentrated by centrifugation and subsequently diluted in DMEM with 10% FCS for plating at 5.0×10^6 cells per 75 cm^2 flask. Adult rat sciatic nerve fibroblasts (RSF) were obtained by explantation of 1 mm sections of adult rat sciatic nerve.
The stripe assay was performed essentially as described by Snow et al. (1990, Exp. Neural. 309:111-130). Tissue culture Petri dishes (Falcon, 60 mm) were precoated with 0.5 ml of a mixture of 5 cm^2 section nitrocellulose (Schleicher & Schuell, Type BA 85) dissolved in 6 ml methanol, and air dried in a laminar flow hood. Cellulose filter paper (Whatman #1) was cut into 12×0.35 mm strips with a McIlwain tissue chopper (The Mickle Laboratory Engineering Co., LTD). A strip of filter paper was soaked in 20 μl of a solution of DS-PG or KS/CS-PG and LN at given concentration, blotted onto the nitrocellulose-coated dish for 30 sec. and removed. The test solution was allowed to air dry. This process was repeated several times creating clearly defined, equally spaced parallel bands of uniform width on the plates. A thin layer of 0.1 or 1 mg/ml LN was then spread evenly across the bands with a bent glass Pasteur pipet, and covered with culture medium (FIG. 1).
Plates were seeded with cell suspensions of 2.0×10^5 cells/ml or 4-10 DRG explants. The cultures were assessed for degree of adhesion, migration and/or invasion of the DS-PG or KS/CS-PG bands over a period of up to 7 days using a Leitz Fluovert microscope.
Bands that were completely inhibitory to cell adhesion, migration and/or invasion were evaluated as (−), those allowing limited cell adhesion, migration and/or invasion (+/−), and those permissive to cell adhesion, migration and/or invasion as (+). cell adhesion was defined as the initial interaction between the cell surface and the substratum which results in cell attachment and spreading. Cell migration was operationally defined as cell movement within the same substratum, and cell invasion was operationally defined as cell movement from one type of substratum to another type of substratum.

| Substance | DS-PG Effect on Adhesion, Migration and Invasion (0.1 mg/ml DS-PG + 20 μg/ml LN stripes) | DS-PG Effect on Adhesion, Migration and Invasion (0.2 mg/ml DS-PG + 20 μg/ml LN stripes) | DS-PG Effect on Adhesion, Migration and Invasion (0.4 mg/ml DS-PG + 20 μg/ml LN stripes) | DS-PG Effect on Adhesion, Migration and Invasion (0.8 mg/ml DS-PG + 20 μg/ml LN stripes) | Effect of KS/CS-PG on Cell Migration (0.25 mg/ml KS/CS-PG + LN stripes) | Effect of KS/CS-PG on Cell Migration (0.5 mg/ml KS/CS-PG + LN stripes) | Effect of KS/CS-PG on Cell Migration (1.0 mg/ml KS/CS-PG + LN stripes) | Effect of KS/CS-PG on Cell Migration (2.7 mg/ml KS/CS-PG + LN stripes) |
| --- | --- | --- | --- | --- | --- | --- | --- | --- |
| Dermatan sulfate proteoglycan [DS-PG] | +/− | +/− | − | − |  |  |  |  |
| keratan sulfate/chrondroitin sulfate-proteoglycans [KS/CS-PG] |  |  |  |  | + | +/− | +/− | +/− |
